# Structures can show the parent of a compound that is named as a salt.
# Biological target: T1, Sirt6 (Homo sapiens, UniProt Q8N6T7)
# T1 construct: purchased CycLex CY-1156V2
# Experiment: Measurement of Sirt6 Activity (CycLex Sirt6 Deacetylase Fluorometric Assay Kit)
# Type: biochemical
# Details: compound at 10 μM; fluorescence relative to the group without compound treatment (positive control group)
# In short: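 Recombinant Sirt6 with fluoro-labelled acetyl-lysine peptide, NAD and lysylendopeptidase developer, compound added from 10× stock in PBS; 1 h at room temperature. Fluorescence read at ex 490/em 530 nm; activation expressed as fluorescence ratio relative to enzyme without compound.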
# T1 sequence (Q8N6T7 whole entry): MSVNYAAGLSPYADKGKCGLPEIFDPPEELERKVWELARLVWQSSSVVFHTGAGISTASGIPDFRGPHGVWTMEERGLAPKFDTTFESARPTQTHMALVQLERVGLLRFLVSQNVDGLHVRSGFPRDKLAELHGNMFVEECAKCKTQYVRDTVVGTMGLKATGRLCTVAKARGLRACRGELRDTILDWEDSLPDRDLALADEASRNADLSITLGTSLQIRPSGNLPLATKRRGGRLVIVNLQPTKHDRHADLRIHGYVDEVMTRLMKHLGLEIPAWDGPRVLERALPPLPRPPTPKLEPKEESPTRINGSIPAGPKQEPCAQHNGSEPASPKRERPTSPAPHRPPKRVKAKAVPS
row,SMILES,"Sirt6 Activity (% activity, 10 μM)"
1,"CCS(=O)(=O)Nc1cccc(-c2nn(-c3ccc(F)cc3)c(=O)c3cccc(C)c23)c1 [Example 150, N-(3-(3-(4-Fluorophenyl)-8-methyl-4-oxo-3,4-dihydrophthalazin-1-yl)phenyl)ethanesulfonamide]",104.7 % activity
2,"CC(C)(C(=O)O)c1cccc(-c2nn(-c3ccc(F)cc3)c(=O)c3ccccc23)c1 [Example 152, 2-(3-(3-(4-Fluorophenyl)-4-oxo-3,4-dihydrophthalazin-1-yl)phenyl)-2-methylpropanoic Acid]",195.5 % activity
3,"CNC(=O)C(C)(C)c1cccc(-c2nn(-c3ccc(F)cc3)c(=O)c3ccccc23)c1 [Example 153, 2-(3-(3-(4-Fluorophenyl)-4-oxo-3,4-dihydrophthalazin-1-yl)phenyl)-N,2-dimethylpropanamide]",280.4 % activity
4,"CS(=O)(=O)c1cccc(-c2nn(C3CCCCC3)c(=O)c3ccccc23)c1 [Example 154, 2-Cyclohexyl-4-(3-(methylsulfonyl)phenyl)phthalazin-1(2H)-one]",263.7 % activity
5,"Cl.N[C@H]1CCCCN(c2nn(C3CCCCC3)c(=O)c3ccccc23)C1 [Example 155, (S)-4-(3-Aminoazepan-1-yl)-2-cyclohexyl phthalazin-1(2H)-one-hydrochloride]",230.9 % activity
6,"CN[C@H]1CCCCN(c2nn(C3CCCCC3)c(=O)c3ccccc23)C1.Cl [Example 156, (S)-2-Cyclohexyl-4-(3-(methylamino)azepan-1-yl)phthalazin-1(2H)-one-hydrochloride]",223.9 % activity
7,"Cl.N[C@H]1CCCCN(c2nn(-c3ccc(F)cc3F)c(=O)c3ccccc23)C1 [Example 157, (S)-4-(3-Aminoazepan-1-yl)-2-(2,4-difluorophenyl)phthalazin-1(2H)-one-hydrochloride]",244.1 % activity
8,"Cl.N[C@H]1CCCCN(c2nn(-c3ccc(F)cc3)c(=O)c3ccccc23)C1 [Example 158, (S)-4-(3-Aminoazepan-1-yl)-2-(4-fluorophenyl)phthalazin-1(2H)-one-hydrochloride]",164.7 % activity
9,"Cl.N[C@@H]1CCCCN(c2nn(C3CCCCC3)c(=O)c3ccccc23)C1 [Example 159, (R)-4-(3-Aminoazepan-1-yl)-2-cyclohexyl phthalazin-1(2H)-one-hydrochloride]",398.8 % activity
10,"CC(C)(C(=O)O)c1cccc(-c2nn(C3CCCCC3)c(=O)c3ccccc23)c1 [Example 160, 2-(3-(3-Cyclohexyl-4-oxo-3,4-dihydrophthalazin-1-yl)phenyl)-2-methylpropanoic Acid]",289.8 % activity
11,"O=C1OCCN1c1cccc(-c2nn(-c3ccc(F)cc3)c(=O)c3ccccc23)c1 [Example 161, 3-(3-(3-(4-Fluorophenyl)-4-oxo-3,4-dihydrophthalazin-1-yl)phenyl)oxazolidin-2-one]",177 % activity
12,"Cl.N[C@@H]1CCCCN(c2nn(-c3ccc(F)cc3)c(=O)c3ccccc23)C1 [Example 162, (R)-4-(3-Aminoazepan-1-yl)-2-(4-fluorophenyl)phthalazin-1(2H)-one-hydrochloride]",205.5 % activity
13,"CC(C)(C(N)=O)c1cccc(-c2nn(C3CCCCC3)c(=O)c3ccccc23)c1 [Example 163, 2-(3-(3-Cyclohexyl-4-oxo-3,4-dihydrophthalazin-1-yl)phenyl)-2-methylpropanamide]",277 % activity
14,"CNC(=O)C(C)(C)c1cccc(-c2nn(C3CCCCC3)c(=O)c3ccccc23)c1 [Example 164, 2-(3-(3-Cyclohexyl-4-oxo-3,4-dihydrophthalazin-1-yl)phenyl)-N,2-dimethylpropanamide]",285.5 % activity
15,"Cl.N[C@@H]1CCCCN(c2nn(-c3ccc(F)cc3F)c(=O)c3ccccc23)C1 [Example 165, (R)-4-(3-Aminoazepan-1-yl)-2-(2,4-difluorophenyl)phthalazin-1(2H)-one-hydrochloride]",277.1 % activity
16,"CC(C)(C(=O)O)c1cccc(-c2nn(-c3ccc(F)cc3F)c(=O)c3ccccc23)c1 [Example 166, 2-(3-(3-(2,4-Difluorophenyl)-4-oxo-3,4-dihydrophthalazin-1-yl)phenyl)-2-methylpropanoic Acid]",239.2 % activity
17,"Cl.NC1CCCCN(c2nn(-c3ccc(F)cc3F)c(=O)c3ccccc23)C1 (centres unmarked) [Example 167, 4-(3-Aminoazepan-1-yl)-2-(2,4-difluorophenyl)phthalazin-1(2H)-one-hydrochloride]",249.4 % activity
18,"CC(C)(C#N)c1cccc(-c2nn(-c3ccc(F)cc3F)c(=O)c3ccccc23)c1 [Example 168, 2-(3-(3-(2,4-Difluorophenyl)-4-oxo-3,4-dihydrophthalazin-1-yl)phenyl)-2-methylpropanenitrile]",155.7 % activity

row,SMILES,"Sirt6 Activity (% activity, 10 μM)"
1,"CC(C)(c1cccc(-c2nn(-c3ccc(F)cc3F)c(=O)c3ccccc23)c1)c1nnn[nH]1 [Example 169, 4-(3-(2-(1H-Tetrazol-5-yl)propan-2-yl)phenyl)-2-(2,4-difluorophenyl)phthalazin-1(2H)-one]",211.3 % activity
2,"CC(C)(/C(N)=N\O)c1cccc(-c2nn(-c3ccc(F)cc3F)c(=O)c3ccccc23)c1 [Example 170, (E)-2-(3-(3-(2,4-Difluorophenyl)-4-oxo-3,4-dihydrophthalazin-1-yl)phenyl)-N′-hydroxy-2-methyl propanimideamide]",262.7 % activity
3,"CC(C)(C(=O)O)c1cccc(-c2nn(-c3ccccc3F)c(=O)c3ccccc23)c1 [Example 171, 2-(3-(3-(2-Fluorophenyl)-4-oxo-3,4-dihydrophthalazin-1-yl)phenyl)-2-methylpropanoic Acid]",134.7 % activity
4,"Cl.NC1CCCCN(c2nn(C3CCC3)c(=O)c3ccccc23)C1 (centres unmarked) [Example 172, 4-(3-Aminoazepan-1-yl)-2-cyclobutyl phthalazin-1(2H)-one-hydrochloride]",99.5 % activity
5,"Cl.NC1CCCCN(c2nn(C3CCCC3)c(=O)c3ccccc23)C1 (centres unmarked) [Example 173, 4-(3-Aminoazepan-1-yl)-2-cyclopentyl phthalazin-1(2H)-one-hydrochloride]",112.2 % activity
6,"Cc1nc(C(C)(C)c2cccc(-c3nn(-c4ccc(F)cc4F)c(=O)c4ccccc34)c2)no1 [Example 174, 2-(2,4-Difluorophenyl)-4-(3-(2-(5-methyl-1,2,4-oxadiazol-3-yl)propan-2-yl)phenyl)phthalazin-1(2H)-one]",114.2 % activity
7,"Cl.N[C@@H]1CCCCN(c2nn(-c3ccccc3F)c(=O)c3ccccc23)C1 [Example 175, (R)-4-(3-Aminoazepan-1-yl)-2-(2-fluorophenyl)phthalazin-1(2H)-one-hydrochloride]",155.3 % activity
8,"CC(C)NC(=O)C(C)(C)c1cccc(-c2nn(-c3ccc(F)cc3F)c(=O)c3ccccc23)c1 [Example 176, 2-(3-(3-(2,4-Difluorophenyl)-4-oxo-3,4-dihydrophthalazin-1-yl)phenyl)-N-isopropyl-2-methylpropanamide]",244.30 % activity
9,"CC(C)(C(=O)N1CCCC1)c1cccc(-c2nn(-c3ccc(F)cc3F)c(=O)c3ccccc23)c1 [Example 177, 2-(2,4-Difluorophenyl)-4-(3-(2-methyl-1-oxo-1-(pyrrolidin-1-yl)propan-2-yl)phenyl)phthalazin-1(2H)-one]",241.6 % activity
10,"CC(C)(C(=O)NC1CC1)c1cccc(-c2nn(-c3ccc(F)cc3F)c(=O)c3ccccc23)c1 [Example 178, N-Cyclopropyl-2-(3-(3-(2,4-difluorophenyl)-4-oxo-3,4-dihydrophthalazin-1-yl)phenyl)-2-methyl Propanamide]",331.00 % activity
11,"CC(C)(C(=O)N1CCOCC1)c1cccc(-c2nn(-c3ccc(F)cc3F)c(=O)c3ccccc23)c1 [Example 179, 2-(2,4-Difluorophenyl)-4-(3-(2-methyl-1-morpholino-1-oxopropan-2-yl)phenyl)phthalazin-1(2H)-one]",221.60 % activity
12,"CC(C)(C(=O)NC1CCCCC1)c1cccc(-c2nn(-c3ccc(F)cc3F)c(=O)c3ccccc23)c1 [Example 180, N-Cyclohexyl-2-(3-(3-(2,4-difluorophenyl)-4-oxo-3,4-dihydrophthalazin-1-yl)phenyl)-2-methylpropanamide]",133.30 % activity
13,"CC(C)(C(=O)Nc1ccccc1)c1cccc(-c2nn(-c3ccc(F)cc3F)c(=O)c3ccccc23)c1 [Example 181, 2-(3-(3-(2,4-difluorophenyl)-4-oxo-3,4-dihydrophthalazin-1-yl)phenyl)-2-methyl-N-phenylpropanamide]",122.10 % activity
14,"Cn1cc(NC(=O)C(C)(C)c2cccc(-c3nn(-c4ccc(F)cc4F)c(=O)c4ccccc34)c2)cn1 [Example 182, 2-(3-(3-(2,4-Difluorophenyl)-4-oxo-3,4-dihydrophthalazin-1-yl)phenyl)-2-methyl-N-(1-methyl-1H-pyrazol-4-yl)propanamide]",219.60 % activity
15,"O=C(O)C1(c2cccc(-c3nn(-c4ccc(F)cc4F)c(=O)c4ccccc34)c2)CC1 [Example 183, 1-(3-(3-(2,4-Difluorophenyl)-4-oxo-3,4-dihydrophthalazin-1-yl)phenyl)cyclopropan-1-carboxylic Acid]",194.70 % activity
16,"O=c1c2ccccc2c(N2CCCNCC2)nn1-c1ccc(F)cc1F [Example 184, 4-(1,4-Diazepan-1-yl)-2-(2,4-difluorophenyl)phthalazin-1(2H)-one-hydrochloride]",176.80 % activity
17,"Cl.N[C@@H]1CCCCN(c2nn(-c3ccc(Cl)cc3)c(=O)c3ccccc23)C1 [Example 185, (R)-4-(3-Aminoazepan-1-yl)-2-(4-chlorophenyl)phthalazin-1(2H)-one-hydrochloride]",273.80 % activity

# Source: patent US20220235011A1, “PHTHALAZINONE COMPOUNDS AND USE THEREOF” (ST PHARM CO., LTD., priority 2019, published 2022)
